According to the NIST ThermoML archive (doi:10.1016/j.jct.2010.12.014):
Values joined by “and” are separate entries in the source; they are usually repeats but may differ in a detail not shown here. Equal values may be shown once. Numbers after ± are expanded uncertainties.

Legend:
[1] = 298.15 K; 101.33 kPa; Liquid; Vibrating tube method
[2] = refractive index (Na D-line) (dimensionless); conditions: 298.15 K; 101.33 kPa; Liquid; Standard Abbe refractometry
[3] = xn = mol fraction of the nth substance listed; conditions: 298.15 K, 101 kPa, Liquid, Vibrating tube method

| SMILES | mass density [1] [kg/m3] | refractive index [2] | further results |
| --- | --- | --- | --- |
| CCOS(=O)(=O)[O-].CCn1cc[n+](C)c1 [1-ethyl-3-methylimidazolium ethyl sulfate] + C1CCCCC1 |  |  | mass density ([3]; x2 = 0.027): 1230.94 ± 0.41 kg/m3 |
| CCOS(=O)(=O)[O-].CCn1cc[n+](C)c1 [1-ethyl-3-methylimidazolium ethyl sulfate] + CC1CCCCC1 |  |  | mass density ([3]; x2 = 0.026): 1232.26 ± 0.42 kg/m3 |
| CCOS(=O)(=O)[O-].CCn1cc[n+](C)c1 [1-ethyl-3-methylimidazolium ethyl sulfate] + CCc1ccccc1 |  |  | mass density ([3]; x2 = 0.124): 1210.43 ± 0.35 kg/m3 and 1210.4 ± 0.35 kg/m3 |
| C1CCCCC1 [cyclohexane] | 773.8 ± 0.13 | 1.4236 ± 0.00031 |  |
| C1CCCCCCC1 [cyclooctane] | 831.47 ± 0.24 | 1.45598 ± 0.00037 |  |
| C1CCCCCCC1 [cyclooctane] + CCOS(=O)(=O)[O-].CCn1cc[n+](C)c1 |  |  | mass density ([3]; x1 = 0.012): 1232.65 ± 0.42 kg/m3 |

The next lines start with results.

| mass density [1] [kg/m3] | refractive index [2] | SMILES | further results |
| --- | --- | --- | --- |
| 1237.23 ± 0.43 | 1.4791 ± 0.00037 | CCOS(=O)(=O)[O-].CCn1cc[n+](C)c1 [1-ethyl-3-methylimidazolium ethyl sulfate] |  |
| 862.51 ± 0.11 | 1.49304 ± 0.00031 | CCc1ccccc1 [ethylbenzene] |  |
| 765.02 ± 0.13 | 1.42062 ± 0.00031 | CC1CCCCC1 [methylcyclohexane] |  |
